# Patent US6887873B2, “Triazine derivatives and their application as antitelomerase agents” (Aventis Pharma S.A., priority 2001, dated 2005)
# Values joined by “and” are separate entries in the source; they are usually repeats but may differ in a detail not shown here. Equal entries are not always repeated.
# How the values were obtained:
# [1] = test system: human telomerease (HL60 cell extract); experiment: Antitelomerease activity: extension of oligonucleotide TS followed by PCR amplification, with HL60 extract; assay type: biochemical; details: read-out: TRAP IC50
# Method: The antitelomerease biological activity is determined by the following experimental protocol:
# The leukaemia line HL60 is obtained from ATCC (American Type Culture Collection, Rockville, USA). The cells are cultured in suspension in RPMI 1640 medium containing L-glutamine at 2 mM, penicillin 200 U/ml, streptomycin 200 μg/ml, gentamycin 50 μg/ml and supplemented with 10% heat-inactivated foetal calf serum.
# An aliquot of 10^5 cells is centrifuged at 3000×G and the supernatant discarded. The cell pellet is resuspended by several successive pipettings in 200 μl of lysis buffer containing 0.5% CHAPS, 10 mM Tris-HCl, pH 7.5, 1 mM MgCl2, 1 mM EGTA, 5 mM β-mercaptoethanol, 0.1 mM PMSF and 10% glycerol and is stored in ice for 30 minutes. The lysate is centrifuged at 160,000×G for 20 minutes at 4° C. and 160 μl of supernatant are recovered. The proteins in the extract are assayed by the Bradford method. The extract is stored at −80° C.
# The inhibition of the telomerease activity is determined by a protocol for extension of the oligonucleotide TS (^5′AATCGTTCGAGCAGAGTT^3′), in the presence of a cellular extract enriched in telomerease activity and compounds which are added at various concentrations (10, 1, 0.1 and 0.01 μM). The extension reaction is followed by a PCR amplification of the extension products with the aid of the oligonucleotides TS and CXext (^5′[…]^3′).
# The reaction medium is prepared based on the following composition:
# The oligonucleotides are obtained from Eurogentec (Belgium) and are stored at −20° C. at a stock concentration of 1 mg/ml in distilled water.
# The reaction samples are assembled in 0.2 ml PCR tubes and one drop of paraffin oil is deposited on each of the reactions of the experiment before closing the tubes.
# The reaction samples are then incubated in a Cetus 4800-type PCR apparatus under the following temperature conditions: • 15 minutes at 30° C., • 1 minute at 90° C., • followed by 30 cycles of, • 30 seconds at 94° C., • 30 seconds at 50° C., • and 1 minute 30 seconds at 72° C., • followed by a final cycle of 2 minutes at 72° C.
# For each of the samples, an aliquot of 10 μl is pipetted under the oil layer and mixed with 5 μl of a loading buffer containing:
# The samples are then analysed by electrophoresis on 12% acrylamide gel in a 1×TBE buffer for 1 hour at a voltage of 200 volts, with the aid of a Novex electrophoresis system.
# The acrylamide gels are then dried on a sheet of Whatmann 3 mm paper at 80° C. for 1 hour.
# The analysis and the quantification of the reaction products are carried out with the aid of an InstantImager apparatus (Pacard).
# For each compound concentration tested, the results are expressed as percentage inhibition of the reaction and calculated from the untreated enzymatic control and from the enzyme-free sample (blank) according to the following formula: (compound value−blank value/enzymatic control value−blank value)×100.
# The concentration of compound inducing a 50% inhibition of the telomerease reaction (IC50) is determined with the aid of a semilogarithmic graphical representation of the inhibition values obtained as a function of each of the compound concentrations tested.
# A compound is considered to be active as an antitelomerease agent when the quantity inhibiting 50% of the telomerease reaction is in particular less than 5 μM.
# [2] = test system: G-quadruplex of oligonucleotide GGGTTAGGGTTAGGGTTAGGG (3.5 repeats of the human telomereic motif); experiment: G-quadruplex stabilizing activity, fluorescence Tm (FAM+DABCYL oligonucleotide); assay type: binding
# Description: The G-quadruplex stabilizing activity may be determined by a method using the formation of a complex with fluorescein of which the experimental protocol is described below.
# All the nucleotides, modified or otherwise, were synthesized by Eurogentec SA, Seraing, Belgium. The oligonucleotide FAM+DABCYL carries the catalogue reference OL-0371-0802. It has the sequence: […] corresponding to 3.5 repeats of the human telomereic motif (strand rich in G). The fluorescein is attached to the 5′ end, the DABCYL to the 3′ end, by the chemical arms described by Eurogentec. The concentration of the samples is checked by spectrophotometry, recording the absorbance spectrum between 220 and 700 nm and using the molar extinction coefficient provided by the supplier.
# All the experiments were carried out in a 10 mM sodium cacodylate buffer pH 7.6 containing 0.1 M lithium chloride (or sodium chloride). The absence of fluorescent contamination in the buffer was checked beforehand. The fluorescent oligonucleotide is added at the final concentration of 0.2 μM.
# All the measurements of fluorescence were carried out on a Spex Fluorolog DM1B apparatus, using an excitation line width of 1.8 nm and an emission line width of 4.5 nm. The samples are placed in a microquartz cuvette of 0.2×1 cm. The temperature of the sample is controlled by an external water bath. The oligonucleotide alone was analysed at 20, 30, 40, 50, 60, 70 and 80° C. The emission spectra are recorded using an excitation wavelength of 470 nm. The excitation spectra are recorded using either 515 nm or 588 nm as emission wavelength. The spectra are corrected for the response of the instrument by reference curves. A high extinction (80-90%) of the fluorescence of fluorescein at room temperature is observed, in agreement with an intramolecular folding of the oligonucleotide at 20° C. in the form of a G-quadruplex, which induces juxtaposition of its 5′ and 3′ ends which are respectively linked to fluorescein and to DABCYL. This juxtaposition causes an already-described phenomenon of extinction of fluorescence which is used for “molecular beacons”.
# An oligonucleotide stock solution at the strand concentration of 0.2 μM in 0.1 M LiCl, 10 mM cacodylate buffer, pH 7.6, is prepared beforehand, heated briefly at 90° C. and slowly cooled to 20° C., and then distributed in aliquots of 600 μl in the fluorescence cuvettes. 3 μl of water (for the control) or 3 μl of test product (stock at 200 μM, final concentration 1 μM) are then added and mixed. The samples are then allowed to incubate for at least 1 hour at 20° C. before each measurement. The use of longer incubation times (up to 24 hours) has no influence on the result obtained.
# Each experiment allows the measurement of only one sample. The latter is first incubated at an initial temperature of 20° C., heated to 80° C. over 38 minutes, left for 5 minutes at 80° C. and then cooled to 20° C. over 62 minutes. During this time, the fluorescence is measured simultaneously at two emission wavelengths (515 nm and 588 nm) using 470 nm as excitation wavelength. A measurement is carried out every 30 seconds. The temperature of the water bath is recorded in parallel, and the fluorescence profile as a function of the temperature is reconstituted from these values. The fluorescence profiles are then normalized between 20° C. and 80° C., and the temperature for which the intensity of emission at 515 nm is the mean of those at high and low temperature is called Tm. Under these conditions, the Tm of the reference sample without addition of product is 44° C. in a lithium chloride buffer. This temperature is increased to more than 55° C. in a sodium chloride buffer. The addition of a G-quadruplex-stabilizing compound induces an increase in the Tm. This increase is judged to be significant if it is greater than 3°.
SMILES,IC50 [1],G4 delta Tm [2]
Cc1cc(N)c2cc(Nc3nc(Nc4ccc5nc(C)cc(N)c5c4)nc(N4CCCN(C)CC4)n3)ccc2n1 [Example 42],0.05 µM,15.5 °C
Cc1cc(N)c2cc(Nc3nc(Nc4ccc5nc(C)cc(N)c5c4)nc(N4CCCN(CCCN5CCCC5)CC4)n3)ccc2n1 [Example 76],0.11 µM,19 °C
COC(C)CNc1nc(Nc2ccc3nc(C)cc(N(C)C)c3c2)nc(Nc2ccc3nc(C)cc(N(C)C)c3c2)n1 (centres unmarked) [Example 165],1.4 µM,6.5 °C
"Cc1cc(N)c2cc(Nc3nc(Nc4ccc5nc(C)cc(N)c5c4)nc(OCCCN(C)C)n3)ccc2n1 [Example 31, 2,4-bis(4-amino-2-methylquinolin-6-yl)amino-6-(3-dimethylaminopropyl)oxy-[1,3,5]triazine]",0.3 µM,15.3 °C
Cc1cc(N(C)C)c2cc(Nc3nc(Nc4ccc5nc(C)cc(N(C)C)c5c4)nc(N4CCOCC4)n3)ccc2n1 [Example 24],1.6 µM,9.7 °C
Cc1cc(N)c2cc(Nc3nc(Nc4ccc5nc(C)cc(N)c5c4)nc(Nc4cccc5ccc(C)nc45)n3)ccc2n1 [Example 98],0.35 µM,4 °C
Cc1cc(N(C)C)c2cc(Nc3nc(Nc4ccc5nc(C)cc(N(C)C)c5c4)nc(N4CCCC(O)C4)n3)ccc2n1 (centres unmarked) [Example 169],0.7 µM,16.5 °C
Cc1cc(N)c2cc(Nc3nc(Nc4ccc5nc(C)cc(N)c5c4)nc(N4CCN(CCO)CC4)n3)ccc2n1 [Example 154],0.2 µM,19 °C
Cc1cc(N)c2cc(Nc3nc(Nc4ccccc4Cl)nc(NC4CCN(C)CC4)n3)ccc2n1 [Example 7],2.4 µM,3.0 °C
COCC1CCCN1c1nc(Nc2ccc3nc(C)cc(N)c3c2)nc(Nc2ccc3nc(C)cc(N)c3c2)n1 (centres unmarked) [Example 159],0.43 µM,10.5 °C
Cc1cc(N)c2cc(Nc3nc(NCCCN(C)C)nc(Nc4ccc5nc(C)cc(N)c5c4)n3)ccc2n1 [Example 12],0.3 µM,9.4 °C
Cc1cc(N(C)C)c2cc(Nc3nc(NCC4CCCN4)nc(Nc4ccc5nc(C)cc(N(C)C)c5c4)n3)ccc2n1 (centres unmarked) [Example 22],0.34 µM,2.7 °C
COCCNc1nc(Nc2ccc3nc(C)cc(N)c3c2)nc(Nc2ccc3nc(C)cc(N)c3c2)n1 [Example 84],2.2 µM,–
Cc1cc(N)c2cc(Nc3nc(Nc4ccc5nc(C)cc(N)c5c4)nc(Sc4ncccn4)n3)ccc2n1 [Example 121],0.4 µM and 0.36 µM,–
Cc1cc(N)c2cc(Nc3nc(Nc4ccc5ncccc5c4)nc(Nc4ccc5nc(C)cc(N)c5c4)n3)ccc2n1 [Example 96],0.48 µM,–
Cc1cc(N)c2cc(Nc3nc(Nc4ccc5nc(C)cc(N)c5c4)nc(Nc4cccc5cccnc45)n3)ccc2n1 [Example 97],0.69 µM,–

SMILES,IC50 [1],G4 delta Tm [2]
Cc1cc(N)c2cc(Nc3nc(NCc4cccc5cnccc45)nc(Nc4ccc5nc(C)cc(N)c5c4)n3)ccc2n1 [Example 81],1.4 µM,–
Cc1cc(N)c2cc(Nc3nc(NCCN4CCOCC4)nc(Nc4ccc5nc(C)cc(N)c5c4)n3)ccc2n1 [Example 80],1.2 µM,–
Cc1cc(N)c2cc(Nc3nc(Nc4ccc5nc(C)cc(N)c5c4)nc(Nc4cc5ccccc5cn4)n3)ccc2n1 [Example 100],0.45 µM,–
Cc1cc(N)c2cc(Nc3nc(Nc4ccc5nc(C)cc(N)c5c4)nc(Nc4ncccn4)n3)ccc2n1 [Example 94],0.94 µM,–
Cc1cc(N)c2cc(Nc3nc(NCc4cccc5ccccc45)nc(Nc4ccc5nc(C)cc(N)c5c4)n3)ccc2n1 [Example 78],1.5 µM,–
Cc1cc(N)c2cc(Nc3nc(Nc4ccc5ccccc5c4)nc(Nc4ccc5nc(C)cc(N)c5c4)n3)ccc2n1 [Example 79],3.6 µM,–
Cc1cc(N)c2cc(Nc3nc(NCCCN(C)C)nc(Nc4ccccc4Cl)n3)ccc2n1 [Example 6],3.5 µM,–
Cc1cc(N)c2cc(Nc3nc(Nc4ccc5nc(C)cc(N)c5c4)nc(Nc4ccc5c6c(cccc46)CC5)n3)ccc2n1 [Example 99],0.6 µM,–
CCOc1cc(Nc2nc(Nc3ccc4nc(C)cc(N)c4c3)nc(Nc3ccc4nc(C)cc(N)c4c3)n2)c2ncccc2c1 [Example 102],0.57 µM,–
Cc1cc(N)c2cc(Nc3nc(Nc4ccc5nc(C)cc(N)c5c4)nc(Sc4ccc5ccccc5c4)n3)ccc2n1 [Example 116],1.8 µM,–
COc1cccc(Nc2nc(Nc3ccc4nc(C)cc(N)c4c3)nc(Nc3ccc4nc(C)cc(N)c4c3)n2)c1 [Example 82],1.6 µM,–
Cc1cc(N)c2cc(Nc3nc(Nc4ccc5nc(C)cc(N)c5c4)nc(Nc4cccc5ncccc45)n3)ccc2n1 [Example 95],0.93 µM,–
"Cc1cc(N)c2cc(Nc3nc(Nc4ccc5nc(C)cc(N)c5c4)nc(Oc4ccccc4)n3)ccc2n1 [Example 29, 2,4-bis(4-amino-2-methylquinolin-6-yl)amino-6-phenoxy-[1,3,5]triazine]",0.32 µM and 0.47 µM,–
Cc1cc(N)c2cc(Nc3nc(Nc4ccc5nc(C)cc(N)c5c4)nc(Nc4cccc5nn[nH]c45)n3)ccc2n1 [Example 61],0.36 µM,–
Cc1cc(N)c2cc(Nc3nc(Nc4ccc5nc(C)cc(N)c5c4)nc(Nc4nccc5ccccc45)n3)ccc2n1 [Example 87],1.5 µM,–
Cc1cc2c(Nc3nc(Nc4ccc5nc(C)cc(N)c5c4)nc(Nc4ccc5nc(C)cc(N)c5c4)n3)cccc2cn1 [Example 101],0.81 µM,–
